The values that follow come from US20180214519A1, “COMBINATION THERAPIES FOR MODULATION OF HISTONE METHYL MODIFYING ENZYMES” (Constellation Pharmaceuticals, Inc., priority 2015, published 2018).

Assay [1] relates to PC9 cells. The assay is described as follows: RNA-sequencing and gene set enrichment analysis in PC9 cells. Type of assay: cell-based. The note with it: 2.5 μM pre-treatment 8 days then 1 μM erlotinib; compared to DMSO pre-treated/erlotinib acutely treated cells. From the text: For RNA sequencing (RNA-seq) experiments, RNA was submitted to Ocean Ridge Biosciences (Palm Beach Gardens, Fla.) for quality control, library preparation and sequencing. Samples were processed as per the vendor's protocols (http://www.oceanridgebio.com/rna-sequencing.html). Data was processed as previously described (ibid).
Experimental gene lists pre-ranked by differential expression were compared against gene sets in the Molecular Signature Database (MSigDB), v4.0 (http://www.broadinstitute.org/gsea/msigdb/index.jsp). GSEA analyses were run using the weighted scoring option, meandiv normalization, and excluding MSigDB gene sets with more than 1500 or fewer than 15 member genes.
For transcriptomic analysis of PC9 cells, cells were pretreated for 8 days with 2.5 μM CPI-360, with one splitting event and reapplication of fresh drug at day 4. On day 8, without splitting, 0.1% (v/v) DMSO or 1 μM erlotinib was added directly to each vessel, mixed, and incubated for 6 or 24 hours before harvesting. Cells were harvested by aspiration of media, and direct application of buffer RLT to the cell culture plate. RNA was purified as described above.
PC9 cells were pre-treated with 2.5 μM Inhbitor 2 or DMSO for 8 days, with splitting, re-seeding and compound re-fresh at day 4. […] RNA was extracted, and analyzed via RNA-sequencing, then gene set enrichment analysis using msigdb v4.0 (all categories). […]

Assay [2] deals with PC9 NucRed cells.
Protocol: The non-small cell lung cancer (NSCLC) cell line PC9 was transduced with virus expressing nuclear-restricted RFP (NucRed, Essen Biosciences NucLight), and selected with zeocin (Invivogen). […] Every 3-4 days, media was removed, cells were washed with PBS, and fresh growth media containing 1 μM erlotinib was added. DTPs are defined as cells maintaining red fluorescence, while remaining in a non-proliferative state. After a period of time, DTPs regain proliferative capacity, at which point they are deemed drug tolerant expanded persisters (DTEPs) (ibid). Cells were maintained in 12 well dishes in an Incucyte ZOOM (Essen Biosciences) positioned in a humidified tissue culture incubator for the length of each experiment. Whole well phase and fluorescent images were obtained every 12 hours by the Incucyte ZOOM, and cell number quantified using an automated algorithm defined from a training set of images that identifies red fluorescent signal (positive signal pseudocolored blue in figures). In each experiment, relative cell number is quantitated by dividing cell number at each time point by the initial cell number for each well. In some instances, PC9 NucRed cells were pretreated with EZH2 inhibitors, before counting and reseeding at 5×10^4 cells per well for DTP generation assays as described above.
48 hours later, 1 μM erlotinib was added to the cells, and images were obtained every 12 hours via the Incucyte imaging system. […] FIG. 15c is a schematic of experimental design for FIG. 15d and FIG. 15e PC9 NucRed cells were pre-treated with Inhbitor 1 as in FIG. 15a and FIG. 15b, however after 48 hours, were treated with 0.1% DMSO instead of erlotinib.
Media with fresh compounds was changed every 3-4 days. Phase and fluorescent images obtained every 12 hours with Incucyte imaging platform. Cell number determined by red fluorescent nuclei detection by Incucyte.
Assay [3] has as its system KARPAS-422 cells. The assay is described as follows: Cell viability assay (Cell Titer Glo) in KARPAS-422 cells. It is filed as cell-based. The note with it: EZH2 mutant-containing DLBCL cell line KARPAS-422; viability monitored at day 4, day 8 and day 12. The protocol: For suspension cell lines, cells were seeded at their pre-determined optimal seeding density in a 96 well dish in a volume of 70-90 μl, depending on the number of compounds under investigation in a single assay (i.e. single agent assay versus combination assay). A 10× stock solution of the highest desired concentration of the compound of interest was made in growth media. In parallel, a solution containing the same % of diluent as the 10× compound concentration was made for each compound under investigation, also in growth media. Compound was diluted serially in the diluent/growth media solution, and 10 μl of 10× drug was added to the relevant wells of the 96 well dish containing cells. […] Cells were cultured in the presence of compound for 4 days, at which point 100 μl growth media was added, cells were triturated, and the cell density of the diluent only control treatment was determined. A split ratio was determined based on this density, such that the new cell density of diluent treated cells after splitting would match the original cell density from day 0. […] 50 μl CTG reagent was added to all wells containing cells that remained in the original 96 well dish, followed by a 30 min incubation on an orbital shaker, before a luminescence reading was obtained on a Perkin-Elmer Envision. […]
A general note: In ATP-based viability assays light output follows the ATP content of the culture.

The mark [4] stands for this setting: pre-treatment 4 days, then 1 μM erlotinib, compared to erlotinib only treated cells.

Read-outs that look alike come from different tables or passages of the source.

Take `COc1cc(C)[nH]c(=O)c1CNC(=O)c1c(C)n([C@H](C)C2CCOCC2)c2ccccc12` [Inhibitor 2]: the “altered pathways (gene set enrichment analysis)” value in assay [1] is given as 3 out of the top 5 altered pathways are interferon-related pathways.
As for `CCS(=O)(=O)N1CCC([C@@H](C)n2c(C)c(C(=O)NCc3c(OC)cc(C)[nH]c3=O)c3ccccc32)CC1` [Inhibitor 1], in assay [2] (5 μM pre-treatment followed by acute 1 μM erlotinib, compared to DMSO pretreatment, acute erlotinib treatment), the “reduction in cell number” value was 80%. Moreover, the “reduction in cell number” value in assay [2] (5 μM pretreatment for 4 days, then acute DMSO treatment, compared to DMSO pretreated cells) is on record as 15%. In assay [2] (setting [4]), the “drug tolerant persister (DTP) cells remaining after initial erlotinib treatment” value is “a reduction in the number of drug tolerant persister (DTP) cells”, the “initiation of cell growth inhibition” value was “faster initiation of cell growth inhibition” and the “outgrowth of erlotinib-resistant cells” value is on record as “delayed/reduced outgrowth of erlotinib-resistant cells”. For the same compound, the “sensitivity of cell viability to treatment” value in assay [3] is “temporal sensitivity”.
Compound `C#Cc1cccc(Nc2ncnc3cc(OCCOC)c(OCCOC)cc23)c1` [erlotinib, reference compound] registered a GI90 dose in assay [2] (PC9 cells) of 1000 nM.
